≈ marks a conversion by molar mass, not a printed value. Where two headings read alike, the source gives them in different places.
Key:
[1] = target: T1, Rat recombinant PDE10A (rPDE10A2) (Rattus norvegicus, UniProt Q9QYJ6); experiment: In vitro assay PDE10A (SPA, 3H-cAMP); type: biochemical; conditions: Table 3; −log IC50 expressed in mol/L
T1 construct: inferred from metal chelate purification; made in house; host or cells: Sf9 insect cells, baculovirus
T1 sequence (Q9QYJ6 1-794): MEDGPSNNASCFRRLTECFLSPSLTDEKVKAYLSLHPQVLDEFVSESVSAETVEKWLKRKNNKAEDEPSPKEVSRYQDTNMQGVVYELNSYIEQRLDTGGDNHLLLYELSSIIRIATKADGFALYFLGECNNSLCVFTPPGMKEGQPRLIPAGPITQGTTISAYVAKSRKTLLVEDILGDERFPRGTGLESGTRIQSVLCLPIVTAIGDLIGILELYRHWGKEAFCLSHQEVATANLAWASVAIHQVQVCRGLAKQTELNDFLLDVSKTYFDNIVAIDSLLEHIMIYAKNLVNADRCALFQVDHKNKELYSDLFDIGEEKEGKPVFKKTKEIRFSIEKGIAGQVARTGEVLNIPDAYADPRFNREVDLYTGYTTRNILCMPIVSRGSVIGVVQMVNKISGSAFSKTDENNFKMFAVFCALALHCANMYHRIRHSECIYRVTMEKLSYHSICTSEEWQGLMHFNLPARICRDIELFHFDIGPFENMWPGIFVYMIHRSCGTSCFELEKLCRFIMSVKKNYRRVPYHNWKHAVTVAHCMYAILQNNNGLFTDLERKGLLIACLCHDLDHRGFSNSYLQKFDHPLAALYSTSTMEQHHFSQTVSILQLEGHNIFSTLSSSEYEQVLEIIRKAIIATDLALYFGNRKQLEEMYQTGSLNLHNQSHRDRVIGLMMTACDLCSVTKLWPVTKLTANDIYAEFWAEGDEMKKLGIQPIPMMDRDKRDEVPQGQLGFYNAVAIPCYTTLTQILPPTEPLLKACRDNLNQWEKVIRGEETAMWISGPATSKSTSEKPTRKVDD
Protocol: Rat recombinant PDE10A (rPDE10A2) was expressed in Sf9 cells using a recombinant rPDE10A baculovirus construct. Cells were harvested after 48 h of infection and the rPDE10A protein was purified by metal chelate chromatography on Ni-sepharose 6FF. Tested compounds were dissolved and diluted in 100% DMSO to a concentration 100 fold of the final concentration in the assay. […] 10 μl of rPDE10A enzyme in incubation buffer was added and the reaction was started by addition of 10 μl substrate to a final concentration of 60 nM cAMP and 0.008 μCi ^3H-cAMP. The reaction was incubated for 60 minutes at room temperature. […] After sedimentation of the beads during 30 minutes the radioactivity was measured in a Perkin Elmer Topcount scintillation counter and results were expressed as cpm. For blanc values the enzyme was omitted from the reaction and replaced by incubation buffer. Control values were obtained by addition of a final concentration of 1% DMSO instead of compound. The same assay principle is applied for the measurement of the affinity of the compound for other members of the PDE family with appropriate modifications in incubation buffer, substrate concentration, incubation time and stop solution.

[2] = system: apomorphine-induced stereotypy in rats; experiment: Apomorphine-induced stereotypy in rats (APO); type: in vivo, rat; conditions: n.d. = found not active at threshold dose 2.5 mg/kg, or 10 mg/kg if (a)
Protocol: Apomorphine (1.0 mg/kg, i.v.)-induced stereotypy (compulsive sniffing, licking, chewing) was scored every 5 min over the first hour after injection of apomorphine, following a 1 hour interval pre-treatment with the test compound. The score system was: (3) pronounced, (2) moderate, (1) slight, and (0) absent.

[3] = system: novel object recognition in female hooded-Lister rats; experiment: Object recognition test (NOR), sub-chronic PCP; type: in vivo, rat; conditions: for effects of acute treatment in the NOR task: compound 1 0.3-1.0 mg/kg, PQ10 1.0 mg/kg, oral, 30 min prior to testing
Protocol: 60 female hooded-Lister rats (Charles River, UK) were used as subjects for these studies and weighed 248 g±20 g. Rats were allowed at least a 7-day acclimatization period to the animal unit prior to commencement of experimentation. Rats were housed in groups of 5 under standard laboratory conditions under a 12 h light:dark cycle, lights on at 0700 h. All testing was carried out in the light phase. Food and water were freely provided. All experiments were conducted in accordance with the Animals Scientific Procedures Act, U.K. 1986 and were approved by the University of Bradford ethical review panel.
40 mg of test compound was dissolved in 5 ml of 40% hydroxypropyl β-cyclodextrin (HPBC) solution. The solution was sonicated until completely dissolved. 2 ml of sterile water was added and the pH measured and adjusted with NaOH solution (0.1N) to obtain pH ˜4. Finally, sterile water was added to a final volume of 10 ml. This stock solution was then diluted in 20% HPBC to obtain the final concentrations.
100 mg of PQ10 was dissolved in a 40% HPBC solution and 8 mg of tartaric acid. The solution was sonicated until completely dissolved. 5 ml of sterile water was added and the pH measured and adjusted with NaOH solution (0.1N) to obtain pH ˜4. Finally sterile water was added to a final volume of 10 ml.
Test compound was administered at doses of 0.3 and 1.0 mg/kg via the oral route 30 min prior to testing.
PQ10 was administered at a dose of 1.0 mg/kg via the oral route 30 min prior to testing.
Certain pre-clinical tests allow the observation of relatively subtle cognitive deficits in the rat that resemble cognitive symptoms in subjects with schizophrenia. The cognitive deficits observed are seen in behaviours such as episodic memory, which can be measured by recognition tasks such as the novel object recognition (NOR) paradigm. A recognition memory task allows the comparison between presented stimuli and previously stored information. […] Object recognition in rats can be measured as the difference in time spent exploring the familiar and the new object. […]

[4] = Adsorption-desorption (dynamic vapor sorption); type: physicochemical; conditions: for weight loss during the initial drying step: 60 min. under dry nitrogen at 25° C.; for hygroscopic behavior / physical form during the DVS test: DVS, 25° C., RH 0-95%
[5] = Intrinsic dissolution rate (IDR) of miniaturized pellets; type: physicochemical; conditions: 37.0±0.5° C.; for Average IDR: 0.01M HCl at 100 rpm, miniaturized pellets; for intrinsic dissolution rate (IDR): pellets of 0.0754 cm^2
Protocol: The intrinsic dissolution rate was measured using a DISS Profiler™ system consisting in both a mini-bath and UV fiber optic (5 mm pathlength) probes connected to a photodiode array (PDA) spectrophotometer (from pION Inc). Each pellet prepared were positioned in individual vessels. The intrinsic dissolution test was performed using 0.01 M HCl (20 mL) maintained at 37.0±0.5° C. with a stirring rate of 100 rpm. The concentration measurements were performed using UV detection at 326 nm. The intrinsic dissolution rate (IDR) was calculated by dividing the dissolution rate by the exposure area of pellet (0.0754 cm^2).

[6] = Solubility as a function of pH at 20° C.; type: physicochemical
Protocol: After removing the undissolved compound (0.45 μm Millex LCR filter), the concentration in the solution was determined using UV spectrometry. The pH of the solution was measured.

COCCOc1cncc(-c2c(C)nc3c(-c4ccncc4)ccnn23)c1 [Compound 149, 3-[5-(2-methoxyethoxy)-3-pyridinyl]-2-methyl-8-(4-pyridinyl)-imidazo[1,2-b]pyridazine]
PDE10A2 pIC50 [1]: 6.82 | APO ED50 (mg/kg) [2]: n.d. (n.d. means the compound was found not active at 2.5 or at 10 mg/kg (the latter being indicated as (a)), taken as threshold value, and was not further tested.)

COc1cc2ncnc(N3CC[C@@H](Oc4cnc5ccccc5n4)C3)c2cc1OC [PQ10]
T2(A) exploration time of familiar object, retention trial ([3]; PCP + 1 mg/kg p.o., mean): 7.9 s | effects of acute treatment in the NOR task [3]: selective for the retention phase of the NOR task

COCCc1ccc(-c2c(C)nc3c(N4CCOCC4)ccnn23)cn1 [Compound 1, 3-[6-(2-methoxyethyl)-3-pyridinyl]-2-methyl-8-(4-morpholinyl)-imidazo[1,2-b]pyridazine]
weight loss during the initial drying step [4]: 0.06% | hygroscopic behavior [4]: no hygroscopic behavior | physical form during the DVS test [4]: remained the same physical form | Average IDR [5]: 0.8170 mg · min^−1 · cm^−2 | intrinsic dissolution rate (IDR) ([5]; 0.01 M HCl, 100 rpm): 0.82 mg·min^−1·cm^−2 | solubility ([6]; aqueous buffer, thermodynamic from solid, borate-KCl—NaOH buffer pH 9, pH of solution 8.9, anhydrous free base): 0.009 mg/mL (≈ 25.5 µM) | solubility ([6]; aqueous buffer, thermodynamic from solid, citrate-NaOH buffer pH 5, pH of solution 5.0, anhydrous free base): 0.012 mg/mL (≈ 34 µM) | solubility ([6]; aqueous buffer, thermodynamic from solid, citrate-NaOH—HCl buffer pH 2, pH of solution 2.9, anhydrous free base): 0.61 mg/mL (≈ 1730 µM) | solubility ([6]; aqueous buffer, thermodynamic from solid, phosphate buffer pH 7, pH of solution 7.0, anhydrous free base): 0.008 mg/mL (≈ 22.6 µM) | solubility ([6]; aqueous buffer, thermodynamic from solid, phosphate-NaOH buffer pH 12, pH of solution 11.9, anhydrous free base): 0.008 mg/mL (≈ 22.6 µM) | solubility ([6]; pH 2.5, simulated gastric fluid, thermodynamic from solid, 0.1N HCl, pH of solution 2.5, anhydrous free base): 2.5 mg/mL (≈ 7070 µM) | solubility ([6]; pH 3, simulated gastric fluid, thermodynamic from solid, 0.01N HCl, pH of solution 3.0, anhydrous free base): 0.32 mg/mL (≈ 905 µM) | solubility ([6]; pH 8.7, thermodynamic from solid, water, pH of solution 8.7, anhydrous free base): 0.009 mg/mL (≈ 25.5 µM) | solubility ([6]; pH 12.9, aqueous buffer, thermodynamic from solid, 0.1N NaOH, pH of solution 12.9, anhydrous free base): 0.008 mg/mL (≈ 22.6 µM) | effects of acute treatment in the NOR task [3]: selective for the retention phase of the NOR task

COCCc1ccc(-c2c(C)nc3c(N4CCOCC4)ccnn23)cn1.O [Compound 1c, 3-[6-(2-methoxyethyl)-3-pyridinyl]-2-methyl-8-(4-morpholinyl)-imidazo[1,2-b]pyridazine monohydrate]
Average IDR [5]: 1.1011 mg · min^−1 · cm^−2 | intrinsic dissolution rate (IDR) ([5]; 0.01 M HCl, 100 rpm): 1.10 mg·min^−1·cm^−2

COCCc1ccc(-c2c(C)nc3c(N4CCOCC4)ccnn23)cn1.O=P(O)(O)O [Compound 1d, 3-[6-(2-methoxyethyl)-3-pyridinyl]-2-methyl-8-(4-morpholinyl)-imidazo[1,2-b]pyridazine phosphate]
weight loss during the initial drying step [4]: 0.3% | hygroscopic behavior [4]: no hygroscopic behavior | physical form during the DVS test [4]: remains crystalline | Average IDR [5]: 2.5172 mg · min^−1 · cm^−2 | time until pellets were totally dissolved ([5]; 0.01 M HCl, 100 rpm): ≤ 10 min | intrinsic dissolution rate (IDR) ([5]; 0.01 M HCl, 100 rpm): 2.52 mg·min^−1·cm^−2 | solubility ([6]; aqueous buffer, thermodynamic from solid, borate-KCl—NaOH buffer pH 9, pH of solution 7.4, phosphate salt, read-out: Solubility (mg/mL) of compound 1d): 0.1 mg/mL | solubility ([6]; aqueous buffer, thermodynamic from solid, citrate-NaOH buffer pH 5, pH of solution 4.9, phosphate salt, read-out: Solubility (mg/mL) of compound 1d): 0.14 mg/mL | solubility ([6]; aqueous buffer, thermodynamic from solid, citrate-NaOH—HCl buffer pH 2, pH of solution 2.5, phosphate salt, read-out: Solubility (mg/mL) of compound 1d): 20.2 mg/mL | solubility ([6]; aqueous buffer, thermodynamic from solid, phosphate buffer pH 7, pH of solution 6.8, phosphate salt, read-out: Solubility (mg/mL) of compound 1d): 0.09 mg/mL | solubility ([6]; aqueous buffer, thermodynamic from solid, phosphate-NaOH buffer pH 12, pH of solution 11.2, phosphate salt, read-out: Solubility (mg/mL) of compound 1d): 0.1 mg/mL | solubility compared to the anhydrous free base form (compound 1) ([6]; in vitro results): much higher solubility | solubility ([6]; pH 2.1, simulated gastric fluid, thermodynamic from solid, 0.1N HCl, pH of solution 2.1, phosphate salt, read-out: Solubility (mg/mL) of compound 1d): 46 mg/mL | solubility ([6]; pH 2.5, simulated gastric fluid, thermodynamic from solid, 0.01N HCl, pH of solution 2.5, phosphate salt, read-out: Solubility (mg/mL) of compound 1d): 11.9 mg/mL | solubility ([6]; pH 2.6, thermodynamic from solid, water, pH of solution 2.6, phosphate salt, read-out: Solubility (mg/mL) of compound 1d): 9.7 mg/mL | solubility ([6]; pH 12.5, aqueous buffer, thermodynamic from solid, 0.1N NaOH, pH of solution 12.5, phosphate salt, read-out: Solubility (mg/mL) of compound 1d): 0.1 mg/mL

Reference: US8716282B2, “Imidazo[1,2-b]pyridazine derivatives and their use as PDE10 inhibitors” (Janssen Pharmaceutica NV, priority 2009, dated 2014)
